For 19 compounds, IC50 and inhibition results are on record in patent US11673889B2, “Substituted imidazo[4,5-c][1,8]naphthyridines as phosphodiesterase inhibitors” (Nanjing Zhengxiang Pharmaceuticals Co., Ltd., priority 2019, dated 2023).

Structures are written as SMILES.

The IC50 is the midpoint of a concentration-inhibition curve. A word on the inhibition: it is the drop in the measured response relative to a control, in per cent.

Assay [1] deals with T1, human soluble ENPP1 (Homo sapiens, UniProt P22413).
T1 construct: 20 ng of human soluble ENPP1
T1 sequence (P22413 103-925 limits assumed): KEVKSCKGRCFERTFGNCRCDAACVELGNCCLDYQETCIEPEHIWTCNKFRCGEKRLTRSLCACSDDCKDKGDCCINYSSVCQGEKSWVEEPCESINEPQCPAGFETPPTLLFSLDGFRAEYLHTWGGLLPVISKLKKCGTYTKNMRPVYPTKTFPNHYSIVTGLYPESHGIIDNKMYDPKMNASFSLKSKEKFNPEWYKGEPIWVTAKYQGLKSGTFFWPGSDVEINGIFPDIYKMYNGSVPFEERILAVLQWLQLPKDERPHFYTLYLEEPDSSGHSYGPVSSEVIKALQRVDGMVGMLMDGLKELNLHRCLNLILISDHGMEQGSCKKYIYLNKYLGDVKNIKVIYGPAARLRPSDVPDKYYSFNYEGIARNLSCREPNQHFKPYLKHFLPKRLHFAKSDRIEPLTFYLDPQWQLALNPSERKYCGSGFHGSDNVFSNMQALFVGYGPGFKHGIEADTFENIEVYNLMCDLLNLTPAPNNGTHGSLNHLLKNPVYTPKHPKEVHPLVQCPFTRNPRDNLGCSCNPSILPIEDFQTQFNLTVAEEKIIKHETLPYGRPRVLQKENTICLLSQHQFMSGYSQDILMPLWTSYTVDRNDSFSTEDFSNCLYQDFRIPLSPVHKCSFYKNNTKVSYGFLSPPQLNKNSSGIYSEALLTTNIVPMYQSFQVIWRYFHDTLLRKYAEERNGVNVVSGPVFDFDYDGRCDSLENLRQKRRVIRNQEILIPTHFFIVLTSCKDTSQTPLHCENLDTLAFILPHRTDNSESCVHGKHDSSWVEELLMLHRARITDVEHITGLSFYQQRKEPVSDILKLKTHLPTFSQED
The experiment in a line: ENPP1 activity assay using p-Nitrophenyl-5′-TMP as a substrate. Type of assay: biochemical. The method, then: ENPP1 is a transmembrane glycoprotein that hydrolyzes nucleotides and nucleotide derivatives with the formation of nucleotide-5′-monophosphates. ENPP1 hydrolyzes artificial phosphoric acid ester thymidine 5′monophosphate p-nitrophenyl ester (TMP-pNP) to nucleotide-5′-monophosphate and p-nitrophenol, which is a chromogenic product.
Load into a well with 20 ng of human soluble ENPP1 in 50 μL and incubate at room temperature with 25 μL inhibitor solution (4× Final Concentration) for 30 mins. Then, add 25 μL 2 mM TMP solution (2× Final Concentration) into the well, Incubate at RT for 1 hour.
(§1) The percent inhibition at each compound is calculated as follows: % inhibition=(ODMAX−ODCOMPOUND)/(ODMAX−ODMIN)*100. (MAX: absence of ENPP1 inhibitors control, MIN: blank control.)
The IC50 values for percent inhibition versus compound concentration were determined by fitting the inhibition curves using a four-parameter variable slope model in GraphPad Prism® 8.

For assay [2], the target named is T1, human soluble ENPP1. The experiment in a line: ENPP1 activity assay using p-Nitrophenyl-5′-AMP as a substrate. The assay is classed as biochemical. As to the method:
AMP-pNP can be used as substrate of ENPP-1. Its hydrolysis products were nucleotide-5′-monophosphate and p-nitrophcnol, which is also a chromogenic product. The amount of p-nitrophenol product formed is measured using its absorbance at 405 nm, which is directly proportional to enzyme activity.
Load into a well with […] of human soluble ENPP1 in 50 μL and incubate at room temperature with 25 μL inhibitor solution (4× Final Concentration) for 30 mins prior adding 25 μL 3 mM AMP solution (2× Final Concentration) into the well, Incubate at RT for 1 hour. The amounts of released p-nitrophenolate were measured by reading OD value at 405 nm.
as §1
(§2) The IC50 values for percent inhibition versus compound concentration are determined by fitting the inhibition curves using a four-parameter variable slope model in GraphPad Prism® 8.

A further assay addresses T2, ENPP-1, MDA-MB-231 cells (Homo sapiens, UniProt P22413).
T2 sequence (P22413 1-925): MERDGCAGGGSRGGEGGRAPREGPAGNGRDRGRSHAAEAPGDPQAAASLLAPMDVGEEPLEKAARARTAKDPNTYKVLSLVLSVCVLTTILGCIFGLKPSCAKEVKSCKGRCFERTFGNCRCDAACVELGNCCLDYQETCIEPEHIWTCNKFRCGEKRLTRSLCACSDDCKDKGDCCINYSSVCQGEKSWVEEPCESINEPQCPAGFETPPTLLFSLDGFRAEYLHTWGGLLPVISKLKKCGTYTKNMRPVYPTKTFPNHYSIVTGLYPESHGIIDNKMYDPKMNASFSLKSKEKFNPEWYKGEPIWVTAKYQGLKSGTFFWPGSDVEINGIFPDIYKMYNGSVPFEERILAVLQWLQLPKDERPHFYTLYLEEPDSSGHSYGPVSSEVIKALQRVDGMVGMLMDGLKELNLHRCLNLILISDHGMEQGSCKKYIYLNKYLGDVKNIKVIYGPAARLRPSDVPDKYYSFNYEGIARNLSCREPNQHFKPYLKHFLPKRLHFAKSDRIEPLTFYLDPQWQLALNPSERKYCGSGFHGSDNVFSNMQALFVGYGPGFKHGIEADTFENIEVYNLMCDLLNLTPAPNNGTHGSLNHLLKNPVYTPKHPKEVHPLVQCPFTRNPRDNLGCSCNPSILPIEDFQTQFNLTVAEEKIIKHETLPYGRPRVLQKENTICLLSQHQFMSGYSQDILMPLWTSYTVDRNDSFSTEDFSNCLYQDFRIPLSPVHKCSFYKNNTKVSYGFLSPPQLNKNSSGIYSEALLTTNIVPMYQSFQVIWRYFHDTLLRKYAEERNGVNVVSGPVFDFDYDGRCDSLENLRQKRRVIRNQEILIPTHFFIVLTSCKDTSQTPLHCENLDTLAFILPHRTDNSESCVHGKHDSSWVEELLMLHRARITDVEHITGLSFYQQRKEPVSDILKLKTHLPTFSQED
Briefly: cell-based. As to conditions: for inhibition at 20 µM: MDA-MB-231, read-out: % Inhibition (at 20 μM). As to the method: ENPP-1 were mainly expressed on the surface of cell membrane where it hydrolytes 2′3′-cGAMP to generate 5′-GMP and 5′-AMP. ENPP-1 also has the ability to hydrolyzes artificial phosphoric acid ester TMP-pNP to nucleotide-5′-monophosphate and p-nitrophcnol there, which is a chromogenic product.
8 point of different concentrations of each inhibitor were prepared with the final assay concentrations starting at 20 μM. 3× series dilution by DMEM medium without FBS was applied. Prior to adding inhibitors, 75000 cells per well were incubated at 37° C., 5% CO2 in DMEM for 24 hours. After removing the supernatant medium, 50 μL inhibitor solution was added into each well with cultured cells and incubate at 37° C., 5% CO2 for 60 minutes.
as §2

Take `COc1cc2ncc3c(c2cc1OC)n(Cc1ccc(S(N)(=O)=O)cc1)c(=O)n3C` [Compound 2, 4-((7,8-dimethoxy-3-methyl-2-oxo-2,3-dihydro-1H-imidazo[4,5-c]quinolin-1-yl)methyl)benzenesulfonamide]: the IC50 at human soluble ENPP1 [1] stood at 10 nM.

At human soluble ENPP1 [1], `COc1ccc2c(c1)ncc1[nH]c(=O)n([C@H](C)c3ccc(S(N)(=O)=O)cc3)c12` [Compound 8, (R)-4-(1-(7-methoxy-2-oxo-2,3-dihydro-1H-imidazo[4,5-c]quinolin-1-yl)ethyl)benzenesulfonamide] registered an IC50 of 0.3 nM.

Compound `COc1cc2ncc3ncn([C@@H](C)c4ccc(S(N)(=O)=O)cc4)c3c2cc1OC` [Compound 11b, (S)-4-(1-(7,8-dimethoxy-1H-imidazo[4,5-c]quinolin-1-yl)ethyl)benzenesulfonamide] displayed an IC50 against human soluble ENPP1 [1] of 196 nM.

For the compound `COc1cc2ncc3nnn(Cc4ccc(S(N)(=O)=O)cc4)c3c2cc1OC` [Compound 13, 4-((7,8-dimethoxy-1H-[1,2,3]triazolo[4,5-c]quinolin-1-yl)methyl)benzenesulfonamide], the half-inhibitory concentration (IC50) was 33 nM at human soluble ENPP1 [2] and 4.3 nM at human soluble ENPP1 [1].

In turn, `COc1cc2ncc3ncn(CC4CCN(S(N)(=O)=O)CC4)c3c2cc1OC` [Compound 32, 4-((7,8-dimethoxy-1H-imidazo[4,5-c]quinolin-1-yl)methyl)piperidine-1-sulfonamide] registered an IC50 against human soluble ENPP1 [1] of 7.7 nM.

With `COc1cc2ncc3ncn(Cc4cccc(S(N)(=O)=O)c4)c3c2cc1OC` [Compound 37, 3-((7,8-dimethoxy-1H-imidazo[4,5-c]quinolin-1-yl)methyl)benzenesulfonamide], at human soluble ENPP1 [1], the IC50 is 165 nM.

Turning to `COc1cc2ncc3nnc(Cc4ccc(S(N)(=O)=O)cc4)n3c2cc1OC` [Compound 44, 4-((7,8-dimethoxy-2λ^2,10λ^4-[1,2,4]triazolo[4,3-a]quinoxalin-1-yl)methyl)benzenesulfonamide], at human soluble ENPP1 [1], it took 65 nM to reach half-maximal inhibition (IC50).

`COc1cc2ncc3ncn(Cc4ccc(S(N)(=O)=O)cc4)c3c2cn1` [Compound 50, 4-((7-methoxy-1H-imidazo[4,5-c][1,6]naphthyridin-1-yl)methyl)benzenesulfonamide]: the midpoint of inhibition on human soluble ENPP1 [1], the IC50, lay at 28 nM.

In the case of `COc1cc2ncc3nnc(-c4ccc(CNS(N)(=O)=O)cc4)n3c2cc1OC` [Compound 51, 4-(7,8-dimethoxy-[1,2,4]triazolo[4,3-a]quinoxalin-1-yl)benzyl sulfamide], on human soluble ENPP1 [1], the concentration for half-maximal inhibition (IC50) came out at 884 nM.

For the compound `COc1ccc2c(ncc3nc(OC)n(Cc4ccc(S(N)(=O)=O)c(F)c4)c32)n1` [Compound 78, 4-((2,7-dimethoxy-1H-imidazo[4,5-c][1,8]naphthyridin-1-yl)methyl)-2-fluorobenzenesulfonamide], the figures for the half-maximal inhibitory concentration (IC50) against human soluble ENPP1 [2] and at human soluble ENPP1 [1] were 7.2 nM and 1.7 nM, respectively.

On to `COc1nc2nc(C)c3nc(C)n(Cc4ncc(S(N)(=O)=O)cn4)c3c2cc1Cl` [Compound 91b, 2-((6-chloro-7-methoxy-2,4-dimethyl-1H-imidazo[4,5-c][1,8]naphthyridin-1-yl)methyl)pyrimidine-5-sulfonamide], for which the values for the IC50 against human soluble ENPP1 [2] and against human soluble ENPP1 [1] were 199 nM and 62 nM, respectively.

On human soluble ENPP1 [1], `COc1ccc2c(ncc3[nH]c(=O)n(Cc4cc(F)c(S(N)(=O)=O)c(F)c4)c32)n1` [Compound 100, 2,6-difluoro-4-((7-methoxy-2-oxo-2,3-dihydro-1H-imidazo[4,5-c][1,8]naphthyridin-1-yl)methyl)benzenesulfonamide] registered an IC50 of 8.8 nM.

For `CCCC(=O)NS(=O)(=O)c1cc(F)c(Cn2c(=O)[nH]c3cnc4nc(OC)ccc4c32)c(F)c1` [Compound 106, sodium butyryl((3,5-difluoro-4-((7-methoxy-2-oxo-2,3-dihydro-1H-imidazo[4,5-c][1,8]naphthyridin-1-yl)methyl)phenyl)sulfonyl)amide], on ENPP-1, MDA-MB-231 cells, the IC50 is over 6700 nM and the inhibition at 20 µM was 57%.

As to `CNS(=O)(=O)c1cc(F)c(Cn2c(=O)[nH]c3cnc4nc(OC)ccc4c32)c(F)c1` [Compound 107, 3,5-difluoro-4-((7-methoxy-2-oxo-2,3-dihydro-1H-imidazo[4,5-c][1,8]naphthyridin-1-yl)methyl)-N-methylbenzenesulfonamide], the IC50 is 79 nM at human soluble ENPP1 [2] and 43 nM against human soluble ENPP1 [1].

With `COc1ccc2c(ncc3[nH]c(=O)n(Cc4c(F)cc(C(N)=O)cc4F)c32)n1` [Compound 109, 3,5-difluoro-4-((7-methoxy-2-oxo-2,3-dihydro-1H-imidazo[4,5-c][1,8]naphthyridin-1-yl)methyl)benzamide], on ENPP-1, MDA-MB-231 cells, the 50% inhibitory concentration (IC50) is over 20000 nM and the inhibition at 20 µM came to 11%.

On to `COc1ccc2c(ncc3[nH]c(=O)n(Cc4ccc(CS(N)(=O)=O)cc4)c32)n1` [Compound 128, (4-((7-Methoxy-2-oxo-2,3-dihydro-1H-imidazo[4,5-c][1,8]naphthyridin-1-yl)methyl)phenyl)-methanesulfonamide], for which the inhibition at 20 µM on ENPP-1, MDA-MB-231 cells came to 82%.

Regarding `COc1ccc2c(ncc3ncn(Cc4c(F)cc(S(N)(=O)=O)cc4F)c32)n1` [Compound 129, 3,5-difluoro-4-((7-methoxy-1H-imidazo[4,5-c][1,8]naphthyridin-1-yl)methyl)benzenesulfonamide], the values for the half-maximal inhibitory concentration (IC50) at human soluble ENPP1 [2] and on human soluble ENPP1 [1] were 0.19 nM and 0.1 nM, respectively.

`COc1ccc2c(ncc3nc(C)n(Cc4c(F)cc(S(N)(=O)=O)cc4F)c32)n1` [Compound 130, 3,5-difluoro-4-((7-methoxy-2-methyl-1H-imidazo[4,5-c][1,8]naphthyridin-1-yl)methyl)benzenesulfonamide]: the IC50 was 0.16 nM against human soluble ENPP1 [2] and 0.16 nM at human soluble ENPP1 [1] (substrate TMP-pNP, 20 ng human soluble ENPP1, Tris buffer pH 9.5, read-out: TMP-pNP (IC50)).

`COc1ccc2c(ncc3[nH]c(=O)n(Cc4c(F)cc(NS(N)(=O)=O)cc4F)c32)n1` [Compound 138]: the 50% inhibitory concentration (IC50) amounted to 141 nM against human soluble ENPP1 [2] and 38 nM on human soluble ENPP1 [1].
